Results from patent publication US20230078764A1 (Yumanity Therapeutics, Inc., priority 2019, published 2023).
Like-named read-outs stand apart in the source and are kept apart here.

How the values were obtained:
[1] = molecular target: T1, human SCD1 (Homo sapiens, UniProt O00767); assay: Growth inhibition of yeast strain expressing human SCD1 as sole desaturase (OLE1 deleted), OD600 readout; format: cell-based
T1 construct: expressed in transfected cells; host or cells: yeast strain with OLE1 deleted, plasmid-borne human SCD1 (selected in SD-Ura)
T1 sequence (O00767 1-359): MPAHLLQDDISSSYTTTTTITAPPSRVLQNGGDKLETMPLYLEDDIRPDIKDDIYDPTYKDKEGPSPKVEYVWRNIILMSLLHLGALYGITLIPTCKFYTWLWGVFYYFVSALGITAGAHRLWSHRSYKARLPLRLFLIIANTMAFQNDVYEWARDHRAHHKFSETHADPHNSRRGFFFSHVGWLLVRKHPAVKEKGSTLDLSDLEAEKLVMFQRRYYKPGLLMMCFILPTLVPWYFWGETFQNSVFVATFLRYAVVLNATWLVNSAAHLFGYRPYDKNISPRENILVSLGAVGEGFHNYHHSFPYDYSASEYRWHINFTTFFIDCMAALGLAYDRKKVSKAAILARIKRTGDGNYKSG

[2] = molecular target: T2, human SCD5 (Homo sapiens, UniProt Q86SK9); assay: Growth inhibition of yeast strain expressing human SCD5 as sole desaturase (OLE1 deleted), OD600 readout; format: cell-based
T2 construct: expressed in transfected cells; host or cells: yeast strain with OLE1 deleted, plasmid-borne human SCD5 (selected in SD-Ura)
T2 sequence (Q86SK9 1-330): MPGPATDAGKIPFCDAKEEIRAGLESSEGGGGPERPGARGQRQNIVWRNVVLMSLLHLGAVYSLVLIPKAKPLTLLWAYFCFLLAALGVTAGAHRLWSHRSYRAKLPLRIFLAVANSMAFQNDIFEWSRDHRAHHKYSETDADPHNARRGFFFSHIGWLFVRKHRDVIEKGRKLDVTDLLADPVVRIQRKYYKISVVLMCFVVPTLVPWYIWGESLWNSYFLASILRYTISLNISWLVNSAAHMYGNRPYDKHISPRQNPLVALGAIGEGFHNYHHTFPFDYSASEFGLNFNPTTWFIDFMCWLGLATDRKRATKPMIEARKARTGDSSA

[3] = yeast strain expressing human SCD1 as sole desaturase, growth (OD600) after 40 h at 30° C., read-out: SCD1 IC50
[4] = yeast strain expressing human SCD5 as sole desaturase, growth (OD600) after 40 h at 30° C., read-out: SCD5 IC50

SMILES | IC50 [1, 3] [nM] | IC50 [2, 4] [nM] | IC50 ([1]; SCD1 IC50) [nM] | IC50 ([2]; SCD5 IC50) [nM]
Cc1cc(C(=O)Nc2ccc(Cc3cc(F)cc(C#N)c3)cn2)cnc1Cl [Compound 665] | > 45000 | 490 | – | –
Cn1nc(C(=O)Nc2ccc(Oc3cc(F)cc(Cl)c3)cn2)ccc1=O [Compound 586] | > 45000 | 1300 | – | –
O=C(Nc1ccc(Cc2cccc(F)c2)cn1)c1ccc(=O)n(CC2CC2)n1 [Compound 77, 1-(cyclopropylmethyl)-N-(5-(3-fluorobenzyl)pyridin-2-yl)-6-oxo-1,6-dihydropyridazine-3-carboxamide] | > 45000 | 6730 | – | –
Cn1nc(C(=O)Nc2ncc(Cc3cccc(C#N)c3)s2)ccc1=O [Compound 389] | > 45000 | > 45000 | – | –
Cn1cc(NC(=O)c2ncc(Cc3ccc(F)c(F)c3)cc2F)ccc1=O [Compound 625] | 4800 | 310 | – | –
CN1N=C(C(=O)Nc2ccc(Cc3cccs3)nn2)CCC1=O [Compound 271] | > 45000 | 14800 | – | –
Cn1cc(C(=O)Nc2ccc(Cc3ccc4c(c3)COC4)cn2)ccc1=O [Compound 62, N-(5-((1,3-dihydroisobenzofuran-5-yl)methyl)pyridin-2-yl)-1-methyl-6-oxo-1,6-dihydropyridine-3-carboxamide] | – | – | 2340 | 2060
Cc1cncc(Cc2ccc(NC(=O)C3=NN(C)C(=O)CC3)nc2)c1 [Compound 437] | > 45000 | > 45000 | – | –
Cn1cc(C(=O)Nc2ccc(Cc3cccc(Cl)c3)nn2)ccc1=O [Compound 183, N-(6-(3-chlorobenzyl)pyridazin-3-yl)-1-methyl-6-oxo-1,6-dihydropyridine-3-carboxamide] | 10700 | 1410 | – | –
Cn1cc(C(=O)Nc2ccc(Cc3ccc(F)cc3)cn2)ccc1=O [Compound 248] | 200 | 10 | – | –
CN1N=C(C(=O)Oc2ccc(NCc3cccc(Br)c3)nc2)CCC1=O [Compound 268] | > 45000 | 3040 | – | –
Cn1nc(C(=O)Nc2ccc(Cc3cccc(F)c3)cn2)cc(Br)c1=O [Compound 280] | 130 | 20 | – | –
N#Cc1ncc(C(=O)Nc2ccc(Cc3cc(F)cc(F)c3)cn2)cc1Cl [Compound 608] | 910 | 27 | – | –
Cc1cc(C(=O)Nc2ccc(Cc3ccc(F)c(C#N)c3)cn2)nn(C)c1=O [Compound 610] | 3400 | 600 | – | –
CC(C)n1nc(C(=O)Nc2ccc(Cc3cccc(F)c3)cn2)ccc1=O [Compound 72, N-(5-(3-fluorobenzyl)pyridin-2-yl)-1-isopropyl-6-oxo-1,6-dihydropyridazine-3-carboxamide] | – | – | 4700 | 390
Cn1ccc(C(=O)Nc2ccc(Cc3cc(F)cc(C#N)c3)cn2)n1 [Compound 96, N-(5-(3-cyano-5-fluorobenzyl)pyridin-2-yl)-1-methyl-1H-pyrazole-3-carboxamide] | 1080 | 130 | – | –
CN1N=C(C(=O)Nc2cnc(Cc3cccc(Cl)c3)nc2)CCC1=O [Compound 443] | > 45000 | > 45000 | – | –
Cn1nc(C(=O)Nc2ccc(Cc3cc(C#N)ccc3F)cn2)ccc1=O [Compound 641] | > 45000 | 540 | – | –
CN1N=C(C(=O)Nc2ncc(Cc3cccc(C(F)(F)F)c3)s2)CCC1=O [Compound 340] | 90 | 120 | – | –
Cn1ccc(C(=O)Nc2ccc(Cc3ccc(F)cc3)cn2)n1 [Compound 93, N-(5-(4-fluorobenzyl)pyridin-2-yl)-1-methyl-1H-pyrazole-3-carboxamide] | 550 | 20 | – | –
O=C(Nc1ccc(Nc2cccc(Cl)c2)cn1)c1ccc(=O)n(C2CC2)n1 [Compound 303] | 4180 | 970 | – | –
Cn1nc(NC(=O)c2ccc(Cc3cccc(F)c3)cn2)ccc1=O [Compound 88, 5-(3-Fluorobenzyl)-N-(1-methyl-6-oxo-1,6-dihydropyridazin-3-yl)picolinamide] | 650 | 20 | – | –
Cn1nc(C(=O)Nc2ccc(Cc3cccc(F)c3)nn2)ccc1=O [Compound 195, N-(6-(3-fluorobenzyl)pyridazin-3-yl)-1-methyl-6-oxo-1,6-dihydropyridazine-3-carboxamide] | 15900 | 2310 | – | –
Cn1cc(C(=O)Nc2ccc(Oc3cccc(Cl)c3)cn2)ccc1=O [Compound 161, N-[5-(3-chlorophenoxy)pyridin-2-yl]-1-methyl-6-oxo-1,6-dihydropyridine-3-carboxamide] | > 45000 | 1640 | – | –
Cn1cc(C(=O)Nc2ccc(Cc3cccc(F)c3)cn2)ccc1=O [Compound 55, N-(5-(3-fluorobenzyl)pyridin-2-yl)-1-methyl-6-oxo-1,6-dihydropyridine-3-carboxamide] | – | – | 1210 | 160
N#Cc1cnc(C(=O)Nc2ccc(Cc3ccc(F)c(F)c3)cn2)cn1 [Compound 591] | 2200 | 18 | – | –

Further lines, with some results ahead:

IC50 [1, 3] [nM] | IC50 [2, 4] [nM] | SMILES | IC50 ([1]; SCD1 IC50) [nM] | IC50 ([2]; SCD5 IC50) [nM]
6020 | 910 | Cn1nc(C(=O)Nc2ccc(Cc3ccc(F)c(Cl)c3)nn2)ccc1=O [Compound 180, N-(6-(3-chloro-4-fluorobenzyl)pyridazin-3-yl)-1-methyl-6-oxo-1,6-dihydropyridazine-3-carboxamide] | – | –
> 45000 | 35500 | Cn1nc(C(=O)Nc2cnc(Cc3cccc(Cl)c3)nc2)ccc1=O [Compound 351] | – | –
6300 | 1440 | CN1N=C(C(=O)Nc2ncc(Cc3ccc(F)cc3F)s2)CCC1=O [Compound 234, N-(5-(2,4-difluorobenzyl)thiazol-2-yl)-1-methyl-6-oxo-1,4,5,6-tetrahydropyridazine-3-carboxamide] | – | –
1940 | 1360 | Cn1cc(C(=O)Nc2nc(C#N)c(Cc3cccc(F)c3)s2)ccc1=O [Compound 353] | – | –
> 45000 | > 45000 | CN1N=C(C(=O)Nc2ccc(Cc3cncc(F)c3)cn2)CCC1=O [Compound 442] | – | –
> 45000 | > 45000 | O=C(Nc1ncc(Cc2cccc(F)c2)s1)C1=NN(CCF)C(=O)CC1 [Compound 386] | – | –
27000 | 6940 | Cn1cc(NC(=O)N2CCC(Oc3cccc(Cl)c3)CC2)ccc1=O [Compound 305] | – | –
> 45000 | 9870 | Cn1cc(C(=O)Nc2ccc(C#CC3CC3)cn2)ccc1=O [Compound 337] | – | –
3120 | 220 | COc1cc(C(=O)Nc2ccc(Cc3cccc(F)c3)cn2)nn(C)c1=O [Compound 127, N-(5-(3-fluorobenzyl)pyridin-2-yl)-5-methoxy-1-methyl-6-oxo-1,6-dihydropyridazine-3-carboxamide] | – | –
> 45000 | > 45000 | CO[C@H]1C[C@@H](C(=O)Nc2ccc(Cc3cccc(F)c3)cn2)N(C(=O)OC(C)(C)C)C1 [Compound 446] | – | –
> 45000 | > 45000 | CN1CC(C(=O)Nc2ncc(Cc3cccc(F)c3)s2)CC1=O (centres unmarked) [Compound 377] | – | –
> 45000 | > 45000 | O=C(Nc1ccc(Cc2cccc(F)c2)cn1)c1ccc(=O)n(C2CCC2)n1 [Compound 421] | – | –
1020 | 10 | Cn1cc(NC(=O)c2ccc(Cc3cc(F)cc(F)c3)cn2)ccc1=O [Compound 311] | – | –
25800 | 2980 | Cn1nc(C(=O)Nc2ccc(Nc3cccc(Cl)c3)cn2)ccc1=O [Compound 367] | – | –
> 45000 | 2650 | CN1N=C(C(=O)Nc2ccc(Cc3cccc(Cl)c3)cc2)CCC1=O [Compound 2, N-(4-(3-chlorobenzyl)phenyl)-1-methyl-6-oxo-1,4,5,6-tetrahydropyridazine-3-carboxamide] | – | –
18700 | 3270 | Cn1cc(-c2cnc(NC(=O)Cc3cccc(F)c3)cn2)ccc1=O [Compound 359] | – | –
740 | 10 | O=C(Nc1ccc(Cc2cccc(F)c2)cn1)c1cc2ncncc2s1 [Compound 555] | – | –
> 45000 | 3790 | O=C(Nc1ccc(Cc2cccc(Cl)c2)cn1)c1ccc(Br)nc1 [Compound 299] | – | –
17300 | 3740 | CN1N=C(C(=O)Nc2ccc(Cc3cc(C(F)(F)F)ccn3)cn2)CCC1=O [Compound 14, 1-methyl-6-oxo-N-(5-((4-(trifluoromethyl)pyridin-2-yl)methyl)pyridin-2-yl)-1,4,5,6-tetrahydropyridazine-3-carboxamide] | – | –
> 45000 | > 45000 | CC(C)Cc1ccc(NC(=O)c2ccc(=O)n(C)n2)nn1 [Compound 395] | – | –
570 | 10 | Cn1cccc(C(=O)Nc2ccc(Cc3cccc(Cl)c3)cn2)c1=O [Compound 330] | – | –
92 | 10 | Cn1cc(C(=O)Nc2ccc(Cc3cccc(F)c3)cn2)n(C)c1=O [Compound 642] | – | –
690 | 130 | Cc1cnc(C(=O)Nc2ccc(Cc3cccc(F)c3)cn2)cn1 [Compound 252] | – | –
